Consider 35 compounds from ChEMBL document CHEMBL3217485, “Understanding and overcoming aminoglycoside resistance caused by N-6'-acetyltransferase” (Medchemcomm, 2012).

In brackets after ≈: the same amount, converted by molar mass. Activity calls are given as the source filed them. The rule behind the calls is not given here. Where a SMILES comes first, the peptide text is derived from it. [ ]: non-standard residue; d: D form. Orn = NCCC[C@H](N)C(=O)O

What is called Kd is a measure of binding affinity in units of concentration. The MIC is the least concentration at which growth counts as inhibited. Low values mean inhibition by little substance, high ones a need for much substance. A word on the Ki: it is the dissociation constant of the complex between target and ligand, obtained from inhibition or displacement. Usually IC50 stands for the concentration that gives 50% inhibition. A word on the Km: it is the substrate concentration at which the rate is half of its maximum.

Assay [1] is described as follows: Binding affinity to AAC(6')-lb (unknown origin).
The subject of a further assay is Pseudomonas aeruginosa. Description: Antibacterial activity against kanamycin-resistant Pseudomonas aeruginosa GN315 expressing AAC(6') enzyme. In kind it is functional.
The subject of the next assay is Escherichia coli. Description: Antibacterial activity against kanamycin-resistant Escherichia coli K-12 R5 expressing AAC(6') enzyme. In kind it is functional.
Another assay has as its target Aac(6')-Ii protein (Enterococcus faecium, UniProt Q47764). The assay can be described thus: Inhibition of Enterococcus faecium AAC(6')-li.
Assay [2] can be described thus: Inhibition of AAC(6')-li (unknown origin).
A short description of assay [3]: Inhibition of AAC(6')-le (unknown origin).
A short description of assay [4]: Activity at AAC(6')-li (unknown origin).

Sequence of Aac(6')-Ii protein (Q47764 whole entry): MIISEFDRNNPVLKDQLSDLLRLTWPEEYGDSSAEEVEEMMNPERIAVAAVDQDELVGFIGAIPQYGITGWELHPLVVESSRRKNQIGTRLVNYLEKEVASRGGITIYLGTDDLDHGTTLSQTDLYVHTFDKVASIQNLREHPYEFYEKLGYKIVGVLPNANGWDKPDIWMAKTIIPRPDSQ

In assay [1], `N[C@H]1C[C@H](Oc2ccccc2[N+](=O)[O-])[C@@H](N)C1` displayed a Kd of 23 µM.

Consider `NC[C@@H]1O[C@@H](O[C@H]2[C@H](O)[C@@H](O[C@H]3O[C@H](CO)[C@@H](O)[C@H](N)[C@H]3O)[C@H](N)C[C@@H]2N)[C@@H](O)[C@H](O)[C@H]1O` [KANAMYCIN A], for which the MIC against Pseudomonas aeruginosa is over 100 µg/mL; in the assay with Escherichia coli, 25 µg/mL (≈ 51.6 µM).

In turn, `CC(C)(CO)[C@@H](O)C(=O)NCCC(=O)NCCSCCC(=O)NC[C@H]1O[C@H](O[C@H]2[C@H](O)[C@@H](O)[C@H](N)C[C@@H]2N)[C@H](N)[C@@H](O)[C@@H]1O` registered a Ki at Aac(6')-Ii protein of at least 500 µM.

H-ILKKWPWWPWRRK-OH showed an IC50 in assay [2] of 23 µM. In addition, the inhibition entry in assay [3] was “inactive”.

In the case of `NC[C@@H]1CC[C@@H](N)[C@@H](O[C@H]2[C@H](O)[C@@H](O[C@H]3O[C@H](CO)[C@@H](O)[C@H](N)[C@H]3O)[C@H](N)C[C@@H]2N)O1` [DIBEKACIN], the results for the MIC with Pseudomonas aeruginosa and with Escherichia coli were over 100 µg/mL and 25 µg/mL (≈ 55.4 µM), respectively.

Compound `CC(C)(COP(=O)(O)OP(=O)(O)OC[C@H]1O[C@@H](n2cnc3c(N)ncnc32)[C@H](O)[C@@H]1OP(=O)(O)O)[C@@H](O)C(=O)NCCC(=O)NCCSCCC(=O)NC[C@H]1O[C@H](O[C@H]2[C@H](O)[C@@H](O)[C@H](N)C[C@@H]2N)[C@H](N)[C@@H](O)[C@@H]1O` showed a Ki in assay [2] of 0.043 µM.

As for `CC(C)(CO)[C@@H](O)C(=O)NCCC(=O)NCCSCCCCC(=O)NC[C@H]1O[C@H](O[C@H]2[C@H](O)[C@@H](O)[C@H](N)C[C@@H]2N)[C@H](N)[C@@H](O)[C@@H]1O`, the Ki at Aac(6')-Ii protein is at least 500 µM.

In turn, `CC(C)(CO)[C@@H](O)C(=O)NCCC(=O)NCCSCC(=O)NC[C@H]1O[C@H](O[C@H]2[C@H](O)[C@@H](O)[C@H](N)C[C@@H]2N)[C@H](N)[C@@H](O)[C@@H]1O` yielded a Ki on Aac(6')-Ii protein of at least 500 µM.

Turning to `CC(=O)CC(=O)N(CCCc1ccccc1)CC(C)(C)[C@@H](O)C(=O)NCCC(=O)NCCSCC(=O)NC[C@H]1O[C@H](O[C@H]2[C@H](O)[C@@H](O)[C@H](N)C[C@@H]2N)[C@H](N)[C@@H](O)[C@@H]1O`, at Aac(6')-Ii protein, the Ki is at least 200 µM.

Compound `N#Cc1ccc(O[C@H]2C[C@H](N)C[C@@H]2N)cc1` displayed a Kd in assay [1] of 20 µM.

In assay [2], `CC(C)(COP(=O)(O)OP(=O)(O)OC[C@H]1O[C@@H](n2cnc3c(N)ncnc32)[C@H](O)[C@@H]1OP(=O)(O)O)[C@@H](O)C(=O)NCCC(=O)NCCSCCCCC(=O)NC[C@H]1O[C@H](O[C@H]2[C@H](O)[C@@H](O)[C@H](N)C[C@@H]2N)[C@H](N)[C@@H](O)[C@@H]1O` returned an inhibition constant (Ki) of 8 µM.

For `CC[C@H](C)[C@H](NC(=O)[C@H](CC(C)C)NC(=O)[C@H](C)NC(=O)[C@@H]1CCCN1C(=O)[C@H](CC(C)C)NC(=O)CNC(=O)[C@@H](NC(=O)[C@@H](NC(=O)[C@H](CC(C)C)NC(=O)[C@@H](NC(=O)[C@H](CCCCN)NC(=O)[C@H](CCCCN)NC(=O)[C@@H](NC(=O)[C@H](C)NC(=O)[C@@H](NC(=O)[C@@H](NC(=O)[C@H](CC(C)C)NC(=O)[C@H](CCCCN)NC(=O)[C@H](CCCCN)NC(=O)[C@@H](NC(=O)[C@H](Cc1ccccc1)NC(=O)[C@H](CO)NC(=O)[C@H](CCCCN)NC(=O)[C@H](Cc1c[nH]c2ccccc12)NC(=O)[C@@H](N)CCCCN)[C@@H](C)CC)[C@@H](C)O)[C@@H](C)O)C(C)C)C(C)C)[C@@H](C)O)[C@@H](C)O)C(=O)N[C@@H](CO)C(=O)O`, in assay [2], the inhibition entry is “inactive”. The compound further showed an IC50 in assay [3] of 21 µM.

With `CC(C)(COP(=O)(O)OP(=O)(O)OC[C@H]1O[C@@H](n2cnc3c(N)ncnc32)[C@H](O)[C@@H]1OP(=O)(O)O)[C@@H](O)C(=O)NCCC(=O)NCCSCCCCCC(=O)NC[C@H]1O[C@H](O[C@H]2[C@H](O)[C@@H](O)[C@H](N)C[C@@H]2N)[C@H](N)[C@@H](O)[C@@H]1O`, the affinity in assay [2] corresponds to a Ki of 5.2 µM.

As to `CC[C@H](C)[C@H](N)C(=O)N[C@@H](CC(C)C)C(=O)N1CCC[C@H]1C(=O)N[C@@H](Cc1c[nH]c2ccccc12)C(=O)N[C@@H](CCCCN)C(=O)N[C@@H](Cc1c[nH]c2ccccc12)C(=O)N1CCC[C@H]1C(=O)N[C@@H](Cc1c[nH]c2ccccc12)C(=O)N[C@@H](Cc1c[nH]c2ccccc12)C(=O)N1CCC[C@H]1C(=O)N[C@@H](Cc1c[nH]c2ccccc12)C(=O)N[C@@H](CCCN=C(N)N)C(=O)N[C@@H](CCCN=C(N)N)C(N)=O`, half-maximal inhibition in assay [2] (IC50) was put at 13 µM. Besides, the inhibition result in assay [3] was “inactive”.

`CC(C)C[C@H](NC(=O)[C@H](CCCNC(=N)N)NC(=O)CNC(=O)CNC(=O)[C@@H](N)CCCNC(=N)N)C(=O)N[C@@H](CS)C(=O)N[C@@H](Cc1ccc(O)cc1)C(=O)N[C@@H](CS)C(=O)N[C@@H](CCCNC(=N)N)C(=O)N[C@@H](CCCNC(=N)N)C(=O)N[C@@H](CCCNC(=N)N)C(=O)N[C@@H](Cc1ccccc1)C(=O)N[C@@H](CS)C(=O)N[C@H](C(=O)N[C@@H](CS)C(=O)N[C@H](C(=O)NCC(=O)N[C@@H](CCCNC(=N)N)C(=O)O)C(C)C)C(C)C` (H-RGGRLCYCRRRFCVCVGR-OH): the inhibition result in assay [2] and in assay [3] was “inactive” in each case.

As for `N[C@H]1[C@@H](O[C@H]2[C@H](O)[C@@H](O)[C@H](N)C[C@@H]2N)O[C@H](CNC(=O)CO)[C@@H](O)[C@@H]1O`, the Km in assay [4] was over 500 µM.

On Aac(6')-Ii protein, `CC(=O)CC(=O)NCC(C)(C)[C@@H](O)C(=O)NCCC(=O)NCCSCC(=O)NC[C@H]1O[C@H](O[C@H]2[C@H](O)[C@@H](O)[C@H](N)C[C@@H]2N)[C@H](N)[C@@H](O)[C@@H]1O` displayed a Ki of at least 200 µM.

Turning to `CC(C)(COP(=O)(O)OP(=O)(O)OC[C@H]1O[C@@H](n2cnc3c(N)ncnc32)[C@H](O)[C@@H]1OP(=O)(O)O)[C@@H](O)C(=O)NCCC(=O)NCCSCCCC(=O)NC[C@H]1O[C@H](O[C@H]2[C@H](O)[C@@H](O)[C@H](N)C[C@@H]2N)[C@H](N)[C@@H](O)[C@@H]1O`, the affinity in assay [2] corresponds to a Ki of 0.161 µM.

Regarding `CC(C)C[C@@H]1NC(=O)[C@H](CCCN)NC(=O)[C@H](C(C)C)NC(=O)[C@@H]2CCCN2C(=O)[C@@H](Cc2ccccc2)NC(=O)[C@H](CC(C)C)NC(=O)[C@H](CCCN)NC(=O)[C@H](C(C)C)NC(=O)[C@@H]2CCCN2C(=O)[C@@H](Cc2ccccc2)NC1=O` [GRAMICIDIN S] (cyclo(L[dF]PV[Orn]L[dF]PV[Orn])), the inhibition result in assay [2] was “inactive”. Besides, 14 µM corresponded to half-maximal inhibition in assay [3] (IC50).

With `N[C@@H]1C[C@H](N)[C@@H](O)C1`, in assay [1], binding was characterised by a dissociation constant (Kd) of 41 µM.

For the compound `CNC[C@H]1O[C@H](O[C@H]2[C@H](O)[C@@H](O[C@@H]3O[C@@H](CO)[C@H](O)[C@@H](N)[C@@H]3O)[C@H](NC(=O)[C@@H](O)CCN)C[C@@H]2N)[C@H](O)[C@@H](O)[C@@H]1O`, the values for the MIC in the assay with Pseudomonas aeruginosa and against Escherichia coli were 25 µg/mL (≈ 41.7 µM) and 1.56 µg/mL (≈ 2.6 µM), respectively.

With `CNC[C@@H]1CC[C@@H](N)[C@@H](O[C@H]2[C@H](O)[C@@H](O[C@@H]3O[C@@H](CO)[C@H](O)[C@@H](N)[C@@H]3O)[C@H](N)C[C@@H]2N)O1`, the MIC amounted to 12.5 µg/mL (≈ 26.9 µM) in the assay on Pseudomonas aeruginosa and 1.56 µg/mL (≈ 3.35 µM) against Escherichia coli.

For H-ILAWKWAWWAWRR-OH, in assay [2], the IC50 amounted to 4.4 µM. Also, the inhibition entry in assay [3] was “inactive”.

`CC(=O)CC(=O)N(Cc1ccccc1)CC(C)(C)[C@@H](O)C(=O)NCCC(=O)NCCSCC(=O)NC[C@H]1O[C@H](O[C@H]2[C@H](O)[C@@H](O)[C@H](N)C[C@@H]2N)[C@H](N)[C@@H](O)[C@@H]1O` registered a Ki at Aac(6')-Ii protein of at least 200 µM.

Take `CC(C)(CO)[C@@H](O)C(=O)NCCC(=O)NCCSCCCCCC(=O)NC[C@H]1O[C@H](O[C@H]2[C@H](O)[C@@H](O)[C@H](N)C[C@@H]2N)[C@H](N)[C@@H](O)[C@@H]1O`: the Ki at Aac(6')-Ii protein was at least 500 µM.

Consider `CCNC[C@H]1O[C@H](O[C@H]2[C@H](O)[C@@H](O[C@@H]3O[C@@H](CO)[C@H](O)[C@@H](N)[C@@H]3O)[C@H](NC(=O)[C@@H](O)CCN)C[C@@H]2N)[C@H](O)[C@@H](O)[C@@H]1O`, for which the MIC against Pseudomonas aeruginosa turned out to be 100 µg/mL (≈ 163 µM); in the assay with Escherichia coli it was 1.56 µg/mL (≈ 2.54 µM).

In the case of H-KWKSFIKKLTSAAKKVTTAAKPLTK-OH, in assay [2], the inhibition entry is “inactive”. In addition, the IC50 in assay [3] is 38 µM.

On to H-KWKKFIKSLTKAAKTVVKTAKKPLIV-OH, for which the IC50 in assay [2] worked out at 24 µM. Also, in assay [3], the inhibition result was “inactive”.

As to `NCC(=O)NC[C@H]1O[C@H](O[C@H]2[C@H](O)[C@@H](O)[C@H](N)C[C@@H]2N)[C@H](N)[C@@H](O)[C@@H]1O`, the Km in assay [4] is over 500 µM.

For `CC(=O)CC(=O)N(CCc1ccccc1)CC(C)(C)[C@@H](O)C(=O)NCCC(=O)NCCSCC(=O)NC[C@H]1O[C@H](O[C@H]2[C@H](O)[C@@H](O)[C@H](N)C[C@@H]2N)[C@H](N)[C@@H](O)[C@@H]1O`, the Ki on Aac(6')-Ii protein was at least 200 µM.

For the compound `CC(C)(COC(=O)CCC(=O)O)[C@@H](O)C(=O)NCCC(=O)NCCSCC(=O)NC[C@H]1O[C@H](O[C@H]2[C@H](O)[C@@H](O)[C@H](N)C[C@@H]2N)[C@H](N)[C@@H](O)[C@@H]1O`, the Ki at Aac(6')-Ii protein was at least 1000 µM.

For `CNC[C@H]1O[C@H](O[C@H]2[C@H](O)[C@@H](O[C@@H]3O[C@@H](CO)[C@H](O)[C@@H](N)[C@@H]3O)[C@H](N)C[C@@H]2N)[C@H](O)[C@@H](O)[C@@H]1O`, the MIC with Pseudomonas aeruginosa was over 100 µg/mL; against Escherichia coli, 1.56 µg/mL (≈ 3.13 µM).

In the case of `Nc1cccc(C(=O)O[C@H]2C[C@H](N)C[C@@H]2N)c1`, the Kd in assay [1] worked out at 57 µM.

With `CC(C)(CO)[C@@H](O)C(=O)NCCC(=O)NCCSCCCC(=O)NC[C@H]1O[C@H](O[C@H]2[C@H](O)[C@@H](O)[C@H](N)C[C@@H]2N)[C@H](N)[C@@H](O)[C@@H]1O`, the Ki at Aac(6')-Ii protein was at least 500 µM.

`CC(C)(COP(=O)(O)OP(=O)(O)OC[C@H]1O[C@@H](n2cnc3c(N)ncnc32)[C@H](O)[C@@H]1OP(=O)(O)O)[C@@H](O)C(=O)NCCC(=O)NCCSCC(=O)NC[C@H]1O[C@H](O[C@H]2[C@H](O)[C@@H](O)[C@H](N)C[C@@H]2N)[C@H](N)[C@@H](O)[C@@H]1O` gave a Ki in assay [2] of 0.076 µM.
